# Experimental data as given in paper PMC12361511 (The EMBO Journal, 2025).
# Key:
# PPP2R1A [1] = target: T1, PPP2R1A (Mus musculus, UniProt Q76MZ3); test: thermal shift (DSF, SYPRO Orange); assay type: binding; conditions: 5 µM protein, 10 mM NaH2PO4 pH 6.0, 25 mM NaCl, 1 mM β-mercaptoethanol; destabilising
# T1 construct: full length, C-terminal 6xHis, E. coli (BL-21 or Arctic Express), about 65 kDa, isolated subunit; 893-PAL is the native protein in mouse FL5.12 / mPCE cells
# KPNB1.1 [2] = target: T2, KPNB1.1 (Homo sapiens, UniProt Q14974); test: thermal shift (DSF, SYPRO Orange); assay type: binding; conditions: 5 µM protein, 10 mM NaH2PO4 pH 6.0, 25 mM NaCl, 1 mM β-mercaptoethanol; destabilising
# T2 construct: amino acids 1-442 (N-terminal half), N-terminal 10xHis, codon-optimized, E. coli, about 44 kDa
# PPP2R1A [3] = target: T1, PPP2R1A; test: thermal shift (DSF, SYPRO Orange); also CD; assay type: binding; conditions: 5 µM protein, 10 mM NaH2PO4 pH 6.0, 25 mM NaCl, 1 mM β-mercaptoethanol; destabilising, reversible on dialysis
# KPNB1.1 [4] = target: T2, KPNB1.1; test: thermal shift (DSF, SYPRO Orange); also CD; assay type: binding; conditions: 5 µM protein, 10 mM NaH2PO4 pH 6.0, 25 mM NaCl, 1 mM β-mercaptoethanol; destabilising, reversible on dialysis
# FL5.12 = test: cells; design: cytotoxicity / viability IC50 in FL5.12 cells at 48 h; conditions: Mus musculus, FL5.12, 48 h
# T1 sequence (Q76MZ3 2-589): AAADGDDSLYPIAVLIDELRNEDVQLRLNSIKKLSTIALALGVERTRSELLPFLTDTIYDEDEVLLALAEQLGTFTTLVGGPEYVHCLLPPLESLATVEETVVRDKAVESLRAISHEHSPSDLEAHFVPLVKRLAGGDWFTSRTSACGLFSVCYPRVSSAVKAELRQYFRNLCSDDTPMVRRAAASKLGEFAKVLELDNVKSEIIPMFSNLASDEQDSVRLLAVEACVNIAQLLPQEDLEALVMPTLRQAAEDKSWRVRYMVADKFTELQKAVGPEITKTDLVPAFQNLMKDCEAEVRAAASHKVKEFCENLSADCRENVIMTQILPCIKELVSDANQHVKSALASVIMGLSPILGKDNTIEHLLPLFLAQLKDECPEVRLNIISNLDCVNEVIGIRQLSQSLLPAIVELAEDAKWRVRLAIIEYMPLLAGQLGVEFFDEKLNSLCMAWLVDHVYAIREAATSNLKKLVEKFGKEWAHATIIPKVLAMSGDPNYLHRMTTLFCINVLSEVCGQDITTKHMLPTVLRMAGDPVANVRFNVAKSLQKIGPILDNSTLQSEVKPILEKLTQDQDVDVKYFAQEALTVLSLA
# T2 sequence (Q14974 1-442): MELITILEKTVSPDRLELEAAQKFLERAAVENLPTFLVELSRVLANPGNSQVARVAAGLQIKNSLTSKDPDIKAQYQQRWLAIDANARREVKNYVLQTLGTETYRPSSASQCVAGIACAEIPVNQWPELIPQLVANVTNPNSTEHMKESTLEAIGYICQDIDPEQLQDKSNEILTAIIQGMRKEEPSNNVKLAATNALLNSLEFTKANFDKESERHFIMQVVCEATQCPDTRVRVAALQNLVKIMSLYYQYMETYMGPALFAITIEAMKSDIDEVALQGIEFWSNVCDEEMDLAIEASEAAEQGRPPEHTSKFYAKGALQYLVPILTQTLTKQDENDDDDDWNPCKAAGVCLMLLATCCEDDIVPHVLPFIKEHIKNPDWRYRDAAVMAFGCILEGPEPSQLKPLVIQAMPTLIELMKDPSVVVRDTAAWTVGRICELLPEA
Compound,dTm (PPP2R1A [1]),dTm (KPNB1.1 [2]),dTm (PPP2R1A [3]),dTm (KPNB1.1 [4]),IC50 (FL5.12) [µM]
CCCCCCCCc1ccc(CCC(N)(CO)CO)cc1 [FTY720],"SH-BC-893, FTY720, and the natural sphingolipid phytosphingosine reduced rather than increased the Tm of both","SH-BC-893, FTY720, and the natural sphingolipid phytosphingosine reduced rather than increased the Tm of both",,,
CCCCCCCCCCCCC/C=C/[C@@H](O)[C@H](CO)N(C)C [dimethylsphingosine],safingol and dimethylsphingosine (DMS) induced conformational changes in PPP2R1A and KPNB1,safingol and dimethylsphingosine (DMS) induced conformational changes in PPP2R1A and KPNB1,,,
CCCCCCCCCCCCCCC[C@H](O)[C@@H](N)CO [safingol],safingol and dimethylsphingosine (DMS) induced conformational changes in PPP2R1A and KPNB1,safingol and dimethylsphingosine (DMS) induced conformational changes in PPP2R1A and KPNB1,,,
CCCCCCCCCCCCC/C=C/[C@@H](O)[C@@H](N)CO [sphingosine],sphingosine triggered conformational changes in both PPP2R1A and KPNB1,sphingosine triggered conformational changes in both PPP2R1A and KPNB1,,,
CCCCCCCCc1ccc([C@H]2CCN[C@@H]2CO)cc1 [SH-BC-893],,,"SH-BC-893, FTY720, and the natural sphingolipid phytosphingosine reduced rather than increased the Tm of both","SH-BC-893, FTY720, and the natural sphingolipid phytosphingosine reduced rather than increased the Tm of both",2
CCCCCCCCCCCCCC[C@@H](O)[C@@H](O)[C@@H](N)CO [phytosphingosine],"SH-BC-893, FTY720, and the natural sphingolipid phytosphingosine reduced rather than increased the Tm of both","SH-BC-893, FTY720, and the natural sphingolipid phytosphingosine reduced rather than increased the Tm of both",,,3.2
